In PubChem BioAssay AID2060884 (Molecular Pharmacology Branch, DTP, NCI, 2025):
pIC50: −log10 of the molar value.

Tested on: NCI-H929 complex spheroids, viability % test/control
Test: Anticancer human tumor NCI-H929 cell line growth inhibition [RAS];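 further: compound exposure lasted seven days before viability was read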;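 on viability, T/C: 100% = DMSO vehicle control viability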
Conditions: for pIC50: curve of first compound; for viability, T/C: stronger effect = lower value
How it was run: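 Agents were tested in combination matrices in half-log decrements from a top concentration at or near clinical Cmax (10 microM if undetermined). Targets were multi-cell spheroids of tumour lines plus HUVEC and MSC stromal cells.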

[1] = second compound 0.0316 µM, first compound 0.0316 µM
[2] = second compound 0.0316 µM, first compound 0.1 µM
[3] = second compound 0.0316 µM, first compound 0.316 µM
[4] = second compound 0.0316 µM, first compound 1 µM
[5] = second compound 0.0316 µM, first compound 3.16 µM
[6] = second compound 0.0316 µM, first compound 10 µM
[7] = second compound 0.1 µM, first compound 0.0316 µM
[8] = second compound 0.1 µM, first compound 0.1 µM
[9] = second compound 0.1 µM, first compound 0.316 µM
[10] = second compound 0.1 µM, first compound 1 µM
[11] = second compound 0.1 µM, first compound 3.16 µM
[12] = second compound 0.1 µM, first compound 10 µM
[13] = second compound 0.316 µM, first compound 0.0316 µM
[14] = second compound 0.316 µM, first compound 0.1 µM
[15] = second compound 0.316 µM, first compound 0.316 µM
[16] = second compound 0.316 µM, first compound 1 µM
[17] = second compound 0.316 µM, first compound 3.16 µM
[18] = second compound 0.316 µM, first compound 10 µM
[19] = second compound 1 µM, first compound 0.0316 µM
[20] = second compound 1 µM, first compound 0.1 µM
[21] = second compound 1 µM, first compound 0.316 µM
[22] = second compound 1 µM, first compound 1 µM
[23] = second compound 1 µM, first compound 3.16 µM
[24] = second compound 1 µM, first compound 10 µM
[25] = second compound 3.16 µM, first compound 0.0316 µM
[26] = second compound 3.16 µM, first compound 0.1 µM
[27] = second compound 3.16 µM, first compound 0.316 µM
[28] = second compound 3.16 µM, first compound 1 µM
[29] = second compound 3.16 µM, first compound 3.16 µM
[30] = second compound 3.16 µM, first compound 10 µM
[31] = second compound 10 µM, first compound 0.0316 µM
[32] = second compound 10 µM, first compound 0.1 µM
[33] = second compound 10 µM, first compound 0.316 µM
[34] = second compound 10 µM, first compound 1 µM
[35] = second compound 10 µM, first compound 3.16 µM
[36] = second compound 10 µM, first compound 10 µM

C[C@@H](NC(=O)c1ncnc(N)c1Cl)c1ncc(C(=O)Nc2cc(C(F)(F)F)c(Cl)cn2)s1 + C#Cc1c(F)ccc2cc(O)cc(-c3ncc4c(N5CC6CCC(C5)N6)nc(OCC56CCCN5CC(F)C6)nc4c3F)c12
pIC50 (second compound 0.0316 µM): < 5.00
pIC50 (second compound 0.1 µM): < 5.00
pIC50 (second compound 0.316 µM): < 5.00
pIC50 (second compound 1 µM): < 5.00
pIC50 (second compound 3.16 µM): < 5.00
pIC50 (second compound 10 µM): < 5.00
viability, T/C [1]: 91.7%
viability, T/C [2]: 89%
viability, T/C [3]: 93.6%
viability, T/C [4]: 79.9%
viability, T/C [5]: 92.2%
viability, T/C [6]: 108%
viability, T/C [7]: 96.2%
viability, T/C [8]: 88.3%
viability, T/C [9]: 89.4%
viability, T/C [10]: 80.7%
viability, T/C [11]: 95.1%
viability, T/C [12]: 110%
viability, T/C [13]: 95.3%
viability, T/C [14]: 94%
viability, T/C [15]: 91.5%
viability, T/C [16]: 85.9%
viability, T/C [17]: 96.4%
viability, T/C [18]: 106%
viability, T/C [19]: 94.9%
viability, T/C [20]: 91.2%
viability, T/C [21]: 94.8%
viability, T/C [22]: 84.3%
viability, T/C [23]: 84.1%
viability, T/C [24]: 109%
viability, T/C [25]: 89.4%
viability, T/C [26]: 94.9%
viability, T/C [27]: 82.6%
viability, T/C [28]: 90.7%
viability, T/C [29]: 89.8%
viability, T/C [30]: 111%
viability, T/C [31]: 77.3%
viability, T/C [32]: 59.4%
viability, T/C [33]: 79.2%
viability, T/C [34]: 74.1%
viability, T/C [35]: 92.1%
viability, T/C [36]: 101%

Cc1nc(N2CCC3(CC2)COC(C)C3N)c(CO)nc1Sc1ccnc(N)c1Cl (stereo not drawn) + CCn1c(-c2cc(N3CCN(C)CC3)cnc2C(C)OC)c2c3cc(ccc31)-c1csc(n1)CC(NC(=O)C1CC1C)C(=O)N1CCCC(N1)C(=O)OCC(C)(C)C2
pIC50 (second compound 0.000949 µM): < 5.00
pIC50 (second compound 0.003 µM): < 5.00
pIC50 (second compound 0.00949 µM): < 5.00
pIC50 (second compound 0.03 µM): > 7.50
pIC50 (second compound 0.0949 µM): > 7.50
pIC50 (second compound 0.3 µM): > 7.50
viability, T/C (second compound 0.000949 µM, first compound 0.0316 µM): 104%
viability, T/C (second compound 0.000949 µM, first compound 0.1 µM): 96.9%
viability, T/C (second compound 0.000949 µM, first compound 0.316 µM): 108%
viability, T/C (second compound 0.000949 µM, first compound 1 µM): 105%
viability, T/C (second compound 0.000949 µM, first compound 3.16 µM): 113%
viability, T/C (second compound 0.000949 µM, first compound 10 µM): 108%
viability, T/C (second compound 0.003 µM, first compound 0.0316 µM): 101%
viability, T/C (second compound 0.003 µM, first compound 0.1 µM): 102%
viability, T/C (second compound 0.003 µM, first compound 0.316 µM): 104%
viability, T/C (second compound 0.003 µM, first compound 1 µM): 107%
viability, T/C (second compound 0.003 µM, first compound 3.16 µM): 110%
viability, T/C (second compound 0.003 µM, first compound 10 µM): 107%
viability, T/C (second compound 0.00949 µM, first compound 0.0316 µM): 118%
viability, T/C (second compound 0.00949 µM, first compound 0.1 µM): 123%
viability, T/C (second compound 0.00949 µM, first compound 0.316 µM): 118%
viability, T/C (second compound 0.00949 µM, first compound 1 µM): 124%
viability, T/C (second compound 0.00949 µM, first compound 3.16 µM): 88.4%
viability, T/C (second compound 0.00949 µM, first compound 10 µM): 119%
viability, T/C (second compound 0.03 µM, first compound 0.0316 µM): 31.8%
viability, T/C (second compound 0.03 µM, first compound 0.1 µM): 25.4%
viability, T/C (second compound 0.03 µM, first compound 0.316 µM): 27.2%
viability, T/C (second compound 0.03 µM, first compound 1 µM): 27.8%
viability, T/C (second compound 0.03 µM, first compound 3.16 µM): 24.9%
viability, T/C (second compound 0.03 µM, first compound 10 µM): 19.7%
viability, T/C (second compound 0.0949 µM, first compound 0.0316 µM): 6.44%
viability, T/C (second compound 0.0949 µM, first compound 0.1 µM): 6.29%
viability, T/C (second compound 0.0949 µM, first compound 0.316 µM): 4.23%
viability, T/C (second compound 0.0949 µM, first compound 1 µM): 5.24%
viability, T/C (second compound 0.0949 µM, first compound 3.16 µM): 4.2%
viability, T/C (second compound 0.0949 µM, first compound 10 µM): 2.67%
viability, T/C (second compound 0.3 µM, first compound 0.0316 µM): 4.38%
viability, T/C (second compound 0.3 µM, first compound 0.1 µM): 3.24%
viability, T/C (second compound 0.3 µM, first compound 0.316 µM): 2.87%
viability, T/C (second compound 0.3 µM, first compound 1 µM): 3.05%
viability, T/C (second compound 0.3 µM, first compound 3.16 µM): 2.74%
viability, T/C (second compound 0.3 µM, first compound 10 µM): 1.82%

Cc1nc(N2CCC3(CC2)COC(C)C3N)c(CO)nc1Sc1ccnc(N)c1Cl (stereo not drawn) + C=CC(=O)N1CCN(c2nc(OCC3CCCN3C)nc3c(F)c(-c4nc(N)cc(C)c4C(F)(F)F)c(Cl)cc23)C(C)C1
pIC50 (second compound 0.00316 µM): < 5.00
pIC50 (second compound 0.01 µM): < 5.00
pIC50 (second compound 0.0316 µM): < 5.00
pIC50 (second compound 0.1 µM): < 5.00
pIC50 (second compound 0.316 µM): < 5.00
pIC50 (second compound 1 µM): < 5.00
viability, T/C (second compound 0.00316 µM, first compound 0.0316 µM): 97.9%
viability, T/C (second compound 0.00316 µM, first compound 0.1 µM): 94.5%
viability, T/C (second compound 0.00316 µM, first compound 0.316 µM): 97.1%
viability, T/C (second compound 0.00316 µM, first compound 1 µM): 94.4%
viability, T/C (second compound 0.00316 µM, first compound 3.16 µM): 101%
viability, T/C (second compound 0.00316 µM, first compound 10 µM): 98.3%
viability, T/C (second compound 0.01 µM, first compound 0.0316 µM): 95.8%
viability, T/C (second compound 0.01 µM, first compound 0.1 µM): 96%
viability, T/C (second compound 0.01 µM, first compound 0.316 µM): 99.8%
viability, T/C (second compound 0.01 µM, first compound 1 µM): 96.5%
viability, T/C (second compound 0.01 µM, first compound 3.16 µM): 101%
viability, T/C (second compound 0.01 µM, first compound 10 µM): 102%
viability, T/C [1]: 95.7%
viability, T/C [2]: 102%
viability, T/C [3]: 100%
viability, T/C [4]: 99.3%
viability, T/C [5]: 102%
viability, T/C [6]: 102%
viability, T/C [7]: 95.6%
viability, T/C [8]: 101%
viability, T/C [9]: 100%
viability, T/C [10]: 102%
viability, T/C [11]: 104%
viability, T/C [12]: 99.7%
viability, T/C [13]: 101%
viability, T/C [14]: 101%
viability, T/C [15]: 103%
viability, T/C [16]: 100%
viability, T/C [17]: 102%
viability, T/C [18]: 104%
viability, T/C [19]: 104%
viability, T/C [20]: 105%
viability, T/C [21]: 105%
viability, T/C [22]: 105%
viability, T/C [23]: 109%
viability, T/C [24]: 103%

NC1c2ccccc2OC12CCN(c1cnc3c(N4CCCc5ncccc54)n[nH]c3n1)CC2 (stereo not drawn) + C#Cc1c(F)ccc2cc(O)cc(-c3ncc4c(N5CC6CCC(C5)N6)nc(OCC56CCCN5CC(F)C6)nc4c3F)c12
pIC50 (second compound 0.0316 µM): < 5.00
pIC50 (second compound 0.1 µM): < 5.00
pIC50 (second compound 0.316 µM): < 5.00
pIC50 (second compound 1 µM): < 5.00
pIC50 (second compound 3.16 µM): < 5.00
pIC50 (second compound 10 µM): < 5.00
viability, T/C [1]: 100%
viability, T/C [2]: 91.8%
viability, T/C [3]: 104%
viability, T/C [4]: 100%
viability, T/C [5]: 104%
viability, T/C [6]: 70.2%
viability, T/C [7]: 95.9%
viability, T/C [8]: 98%
viability, T/C [9]: 101%
viability, T/C [10]: 101%
viability, T/C [11]: 105%
viability, T/C [12]: 64.8%
viability, T/C [13]: 99.2%
viability, T/C [14]: 97.4%
viability, T/C [15]: 105%
viability, T/C [16]: 99.8%
viability, T/C [17]: 104%
viability, T/C [18]: 67.8%
viability, T/C [19]: 98.3%
viability, T/C [20]: 96.5%
viability, T/C [21]: 106%
viability, T/C [22]: 106%
viability, T/C [23]: 99.7%
viability, T/C [24]: 67.2%
viability, T/C [25]: 96.3%
viability, T/C [26]: 98.7%
viability, T/C [27]: 99%
viability, T/C [28]: 101%
viability, T/C [29]: 103%
viability, T/C [30]: 59.5%
viability, T/C [31]: 95.9%
viability, T/C [32]: 94.7%
viability, T/C [33]: 98.6%
viability, T/C [34]: 97.3%
viability, T/C [35]: 82.1%
viability, T/C [36]: 53.6%
